What was measured:
[1] = tested on: LOVO colon cancer cells; assay: SRB cell viability assay; type: cell-based, human; conditions: 72 hours after treatment
Text: PKR and PI4K2A expression are associated with poor prognosis in cancer patients: PKR and PI4K2A are encoded by the EIF2AK2 and PI4K2A genes, respectively. […] It was also examined the expression of PKR using immunohistochemical staining of five normal skin and five breast tumor samples and observed that all of the breast tumor cells had high cytoplasmic PKR expression (FIG. 7C). However, all of the normal skin cells had low cytoplasmic PKR expression, and some of them had high nuclear PKR expression. […] Furthermore, the association between EIF2AK2 or PI4K2A gene expression and overall survival was evaluated in colorectal cancer patients using the TCGA data set. […]
Cell viability assays: For SRB assays, cells (2-8×10^3/well in 100 μL of culture medium) were seeded in 96-well flat-bottomed plates and treated the next day with compounds at the indicated concentrations. […] The protein was stained with SRB, and the optical density at 570 nm was determined. Relative cell viability was calculated by setting the viability rate of the control cells (exposed only to dimethyl sulfoxide) at 100% and comparing the viability of the treated cells with that of the controls. […] The viability of leukemia cell lines was determined by using a 3-(4,5-dimethylthiazol-2-yl)-2,5-diphenyltetrazolium bromide assay. […]

[2] = tested on: PKR and p-PKR; assay: Western blot of PKR and p-PKR protein expression; type: cell-based, human
[3] = tested on: p-4EBP1 (T70), PP2A; assay: Western blot of p-4EBP1 and p-PP2Ac; type: cell-based, human; conditions: H1299 and A549 cells
[4] = tested on: p-4EBP1, eEF2K, GSK3ab, IRS1 and Caveolin; assay: RPPA assay of 156 proteins; type: cell-based, human; conditions: H1299 and A549 cells, 72 hours; Pac 1 5 and 10 μM, Pac 2 10 μM
Protocol: The translation regulator eukaryotic […] 4EBP1 is phosphorylated by and is a substrate of PIM3 and PIM1. To further determine whether treatment with Pac 1 affects PIM3/1 downstream targets, the expression of 156 proteins in H1299 and A549 cells was analyzed after treatment with Pac 1 or Pac 2 using an RPPA assay. […] Others reported cross-talk of PP2A with PKR and 4EBP1 protein in cancer cells.

[5] = Toxicity in mice; conditions: 50 mg/kg intravenously daily for 7 days
[6] = tested on: leukemia cell lines; assay: 3-(4,5-dimethylthiazol-2-yl)-2,5-diphenyltetrazolium bromide viability assay; type: cell-based
Protocol: (§1) Cell viability assays: For SRB assays, cells (2-8×10^3/well in 100 μL of culture medium) were seeded in 96-well flat-bottomed plates and treated the next day with compounds at the indicated concentrations. After the indicated treatments, cells were fixed with trichloroacetic acid. The protein was stained with SRB, and the optical density at 570 nm was determined. Relative cell viability was calculated by setting the viability rate of the control cells (exposed only to dimethyl sulfoxide) at 100% and comparing the viability of the treated cells with that of the controls. The experiments were performed at least three times for each cell line. The viability of leukemia cell lines was determined by using a 3-(4,5-dimethylthiazol-2-yl)-2,5-diphenyltetrazolium bromide assay.

[7] = tested on: PI4K2A protein; assay: Thermal shift assay (differential scanning fluorimetry); type: binding
[8] = molecular target: PIM1 (Homo sapiens, UniProt P11309); assay: High-throughput enzymatic screening; type: biochemical
[9] = tested on: HeLa cells; assay: SRB cell viability assay; type: cell-based, human; conditions: 72 hours after treatment
Protocol: Anticancer effects of PKR-targeting compounds depend on PKR expression status: To identify compounds that can target lysosomes in PKR-positive cells or MVBs/exosomes in PKR-negative cells, the 10,000-compound ChemBridge library was screened for compounds with different effects on the growth of HeLa and HeLaPKRkd cells. […] SRB assays were next used to determine cell viability after treatment with Pac 1 or Pac 2.
as §1
Identification of PKR-associated compounds and cytotoxicity studies: The library of 10,000 compounds was screened for those with different effects on the growth of HeLa and HeLaPKRkd cells. […] Treated cells were observed under a microscope to detect morphologic changes, and their viability was determined using SRB assays 2 and 3 days after treatment. […]
For the SRB assay, cells (2-8×10^3/well in 100 μL of culture medium) were seeded in 96-well flat-bottomed plates and treated the next day with compounds at the indicated concentrations. […] The cells were stained using SRB, and the optical density at 570 nm was determined. Relative cell viability was determined by setting the viability of the control cells (exposed only to dimethyl sulfoxide) at 100% and comparing their viability with that of the treated cells. […]

[10] = molecular target: PI4K2A kinase (Homo sapiens, UniProt Q9BTU6); assay: ADP-Glo kinase assay, high-throughput enzymatic screening (Reaction Biology)
[11] = molecular target: PI4KIIIa (Homo sapiens, UniProt P42356); assay: as above; type: biochemical
[12] = tested on: breast cancer cell lines; assay: SRB cell viability assay; type: cell-based, human; conditions: 72 hours after treatment
Protocol: The effects of Pac 1 and Pac 2 were next examined on PKR protein expression in HeLa cells using Western blot analysis. […] No reduction in normal cell viability was observed after treatment with Pac 1 or Pac 2 (FIGS. 5F and G). […] Because most of the cancer cell lines that were tested were more sensitive to Pac 1 than to Pac 2, Pac 1 was further investigated.
as §1
For the SRB assay, cells (2-8×10^3/well in 100 μL of culture medium) were seeded in 96-well flat-bottomed plates and treated the next day with compounds at the indicated concentrations. After treatment for the indicated times, cells were fixed with trichloroacetic acid. The cells were stained using SRB, and the optical density at 570 nm was determined. Relative cell viability was determined by setting the viability of the control cells (exposed only to dimethyl sulfoxide) at 100% and comparing their viability with that of the treated cells. The experiments were performed at least three times for each cell line.

[13] = molecular target: PI3 Kg (Homo sapiens, UniProt P48736); assay: ADP-Glo kinase assay, high-throughput enzymatic screening (Reaction Biology); type: biochemical
[14] = tested on: 127 human lung cancer cell lines; assay: SRB assay, oncopanel of 127 lung cancer cell lines; type: cell-based
Text: Antiproliferative effect of Pac 1 and Pac 2 on an oncopanel of lung cancer cell lines: The antiproliferative effect of treatment with Pac1 were further tested on an oncopanel of 127 cell lines of various lung tumor origins. […] RPPA analysis of Pac 1-sensitive cells identified correlation with higher expression of GSK3 (FIG. 16B), and Pac 1-resistant cells correlation with higher expression of IRS1, Caveolin and PKCA (PS657) (FIG. 16B). Analyzed the Pac1 sensitivity with gene mutation observed that low Pac 1 IC50 correlated with VCAN and ZNF804A mutation, and high Pac 1 IC50 correlated with LOXHD1 and CDH12 mutation (FIG. 16C). VCAN mutant lung cancer cells are sensitive to treatment of Pac 1.
as §1

[15] = molecular target: PIM3 (Homo sapiens, UniProt Q86V86); assay: High-throughput enzymatic screening; type: biochemical

Sequence of PI4KIIIa (P42356 whole entry): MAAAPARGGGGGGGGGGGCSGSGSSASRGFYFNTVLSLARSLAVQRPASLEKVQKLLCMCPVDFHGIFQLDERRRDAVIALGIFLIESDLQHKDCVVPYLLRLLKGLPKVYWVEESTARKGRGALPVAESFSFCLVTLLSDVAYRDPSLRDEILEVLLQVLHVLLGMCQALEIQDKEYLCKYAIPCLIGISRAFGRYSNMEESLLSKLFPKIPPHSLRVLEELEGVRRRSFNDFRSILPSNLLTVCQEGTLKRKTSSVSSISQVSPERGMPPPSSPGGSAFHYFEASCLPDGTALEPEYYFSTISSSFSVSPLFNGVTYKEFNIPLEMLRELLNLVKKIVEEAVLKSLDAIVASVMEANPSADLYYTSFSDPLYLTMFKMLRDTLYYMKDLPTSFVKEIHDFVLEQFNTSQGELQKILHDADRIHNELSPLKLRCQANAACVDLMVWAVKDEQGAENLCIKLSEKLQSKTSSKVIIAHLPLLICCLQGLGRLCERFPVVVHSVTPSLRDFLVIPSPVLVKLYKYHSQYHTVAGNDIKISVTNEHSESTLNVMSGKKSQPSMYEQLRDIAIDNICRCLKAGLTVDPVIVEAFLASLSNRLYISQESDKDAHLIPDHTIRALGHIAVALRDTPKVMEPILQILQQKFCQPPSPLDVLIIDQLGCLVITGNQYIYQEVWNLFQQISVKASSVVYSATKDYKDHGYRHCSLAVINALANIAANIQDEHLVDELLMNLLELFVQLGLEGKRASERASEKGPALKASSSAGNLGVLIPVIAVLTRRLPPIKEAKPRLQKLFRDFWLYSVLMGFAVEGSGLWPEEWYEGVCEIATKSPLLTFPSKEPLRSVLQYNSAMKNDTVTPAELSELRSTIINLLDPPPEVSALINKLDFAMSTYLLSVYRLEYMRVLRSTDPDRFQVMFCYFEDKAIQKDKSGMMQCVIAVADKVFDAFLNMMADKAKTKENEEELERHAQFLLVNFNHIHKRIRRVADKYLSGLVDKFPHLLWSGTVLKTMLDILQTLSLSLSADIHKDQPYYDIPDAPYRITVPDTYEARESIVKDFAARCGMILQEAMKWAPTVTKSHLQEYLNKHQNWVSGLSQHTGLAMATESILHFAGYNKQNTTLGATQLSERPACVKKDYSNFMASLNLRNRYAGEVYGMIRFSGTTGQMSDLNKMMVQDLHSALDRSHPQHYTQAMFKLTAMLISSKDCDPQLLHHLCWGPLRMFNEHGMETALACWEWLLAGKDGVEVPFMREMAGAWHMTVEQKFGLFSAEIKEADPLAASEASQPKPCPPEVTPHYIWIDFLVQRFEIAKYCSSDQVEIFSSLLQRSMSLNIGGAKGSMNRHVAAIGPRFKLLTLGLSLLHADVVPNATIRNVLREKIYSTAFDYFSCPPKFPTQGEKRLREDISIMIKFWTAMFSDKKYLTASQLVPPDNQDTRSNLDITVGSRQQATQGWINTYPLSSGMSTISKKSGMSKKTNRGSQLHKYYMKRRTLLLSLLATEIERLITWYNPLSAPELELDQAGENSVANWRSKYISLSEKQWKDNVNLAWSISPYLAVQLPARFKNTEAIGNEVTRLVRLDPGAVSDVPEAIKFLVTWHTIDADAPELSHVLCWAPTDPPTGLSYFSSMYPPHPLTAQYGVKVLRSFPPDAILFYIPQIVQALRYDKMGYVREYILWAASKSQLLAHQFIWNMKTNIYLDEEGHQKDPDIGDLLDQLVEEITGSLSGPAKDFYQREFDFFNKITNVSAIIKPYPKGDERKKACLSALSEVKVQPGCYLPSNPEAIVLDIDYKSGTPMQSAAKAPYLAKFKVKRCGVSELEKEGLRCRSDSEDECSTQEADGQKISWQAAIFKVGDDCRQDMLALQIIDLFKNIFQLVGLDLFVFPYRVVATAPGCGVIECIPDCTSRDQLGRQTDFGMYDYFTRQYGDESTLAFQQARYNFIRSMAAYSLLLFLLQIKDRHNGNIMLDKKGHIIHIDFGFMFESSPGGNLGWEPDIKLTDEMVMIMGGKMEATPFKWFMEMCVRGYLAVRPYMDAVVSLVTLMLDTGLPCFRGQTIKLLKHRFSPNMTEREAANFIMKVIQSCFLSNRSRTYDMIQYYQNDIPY
Sequence of PI3 Kg (P48736 whole entry): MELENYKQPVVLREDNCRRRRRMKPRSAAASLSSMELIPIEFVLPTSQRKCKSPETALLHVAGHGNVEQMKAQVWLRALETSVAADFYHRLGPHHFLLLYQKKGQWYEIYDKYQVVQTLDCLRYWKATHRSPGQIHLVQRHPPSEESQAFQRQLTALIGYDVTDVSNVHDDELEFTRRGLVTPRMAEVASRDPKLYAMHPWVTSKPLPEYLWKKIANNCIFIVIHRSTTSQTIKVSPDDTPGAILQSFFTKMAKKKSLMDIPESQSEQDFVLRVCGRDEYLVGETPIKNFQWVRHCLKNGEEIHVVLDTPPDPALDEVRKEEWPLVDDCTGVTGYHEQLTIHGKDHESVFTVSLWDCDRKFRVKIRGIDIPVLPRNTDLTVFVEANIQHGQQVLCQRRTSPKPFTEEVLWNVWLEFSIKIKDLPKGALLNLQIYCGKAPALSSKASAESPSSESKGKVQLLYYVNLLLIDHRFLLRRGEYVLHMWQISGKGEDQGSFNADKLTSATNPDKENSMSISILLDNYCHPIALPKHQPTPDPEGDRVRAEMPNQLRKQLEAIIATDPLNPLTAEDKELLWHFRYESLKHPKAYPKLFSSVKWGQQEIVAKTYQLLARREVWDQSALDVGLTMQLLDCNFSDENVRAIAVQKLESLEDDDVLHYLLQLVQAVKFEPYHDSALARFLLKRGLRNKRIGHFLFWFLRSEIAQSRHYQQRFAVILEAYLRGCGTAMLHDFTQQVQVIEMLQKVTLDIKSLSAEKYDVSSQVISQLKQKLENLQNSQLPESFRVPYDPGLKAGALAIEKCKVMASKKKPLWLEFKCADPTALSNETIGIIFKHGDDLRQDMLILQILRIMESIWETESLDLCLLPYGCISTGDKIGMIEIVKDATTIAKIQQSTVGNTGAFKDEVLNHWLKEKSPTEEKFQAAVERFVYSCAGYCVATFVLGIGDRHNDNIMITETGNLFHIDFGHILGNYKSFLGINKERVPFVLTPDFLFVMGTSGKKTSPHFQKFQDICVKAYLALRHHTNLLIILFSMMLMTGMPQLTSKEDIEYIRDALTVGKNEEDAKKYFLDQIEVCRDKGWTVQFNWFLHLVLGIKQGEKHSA
Sequence of PI4K2A kinase (Q9BTU6 whole entry): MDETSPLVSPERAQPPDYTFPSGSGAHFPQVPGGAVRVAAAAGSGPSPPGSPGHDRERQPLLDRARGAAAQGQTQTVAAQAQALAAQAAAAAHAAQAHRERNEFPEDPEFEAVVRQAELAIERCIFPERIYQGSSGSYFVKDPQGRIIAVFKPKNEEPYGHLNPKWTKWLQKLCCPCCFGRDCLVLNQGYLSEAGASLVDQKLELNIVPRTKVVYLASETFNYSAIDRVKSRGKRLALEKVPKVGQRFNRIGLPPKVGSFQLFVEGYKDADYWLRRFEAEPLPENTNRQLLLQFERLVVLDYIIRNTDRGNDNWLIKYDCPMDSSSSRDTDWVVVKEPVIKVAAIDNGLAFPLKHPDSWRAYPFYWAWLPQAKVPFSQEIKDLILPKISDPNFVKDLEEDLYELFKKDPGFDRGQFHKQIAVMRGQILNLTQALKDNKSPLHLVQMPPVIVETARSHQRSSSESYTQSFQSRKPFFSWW
Sequence of PIM1 (P11309 whole entry): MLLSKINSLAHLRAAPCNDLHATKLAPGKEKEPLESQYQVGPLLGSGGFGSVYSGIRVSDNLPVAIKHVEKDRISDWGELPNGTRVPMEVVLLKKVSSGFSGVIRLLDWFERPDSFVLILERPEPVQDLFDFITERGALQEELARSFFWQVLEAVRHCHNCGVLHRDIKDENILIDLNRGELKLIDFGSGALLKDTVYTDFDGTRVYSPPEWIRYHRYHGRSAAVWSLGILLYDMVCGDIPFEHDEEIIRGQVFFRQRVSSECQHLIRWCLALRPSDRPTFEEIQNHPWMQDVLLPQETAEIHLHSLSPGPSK

O=C(N/N=C\c1c(O)ccc2ccccc12)c1cccc2cc[nH]c12 [Pac 1, N′—[(Z)-(2-Hydroxy-1-naphthyl)methylene]-1H-indole-7-carbohydrazide]
growth of LOVO colon cancer cells [1]: inhibited the growth
PKR and p-PKR expression ([2]; A549 and H1299 cells, 5 μM, 72 hours): markedly reduced
expression of PKR and p-PKR ([2]; HeLa cells, 72 hours after treatment): significantly reduced
PKR, p-PKR, and PI4K2A expression ([2]; LOVO colon cancer cells, 72 hours, various doses): reduced PKR, p-PKR, and PI4K2A expression
PKR expression ([2]; breast cancer cell lines, 72 hours, various doses): reduced PKR expression
PP2A activity, indicated by dissociation of the p-PP2Ac complex [3]: Inactivation of PP2A was observed
expression of p-4EBP1 (T70) protein ([3]; 72 hours after treatment): reduction of expression
levels of p-4EBP1 (S65, T37, and T70), eEF2K, GSK3ab, IRS1 and Caveolin [4]: significantly inhibited
blood chemistry: aspartate aminotransferase, SGOT, SGPT, alkaline phosphatase, creatine kinase, lactate dehydrogenase levels [5]: normal
histopathologic examination of major organs ([5]; heart, lungs, liver, kidneys, pancreas, spleen): no significant changes in any major organs
growth of leukemia cell lines [6]: growth inhibition
binding to PI4K2A and change of melting temperature [7]: binds to PI4K2A and causes a decrease in the melting temperature
inhibition of PIM3/1 activity [8]: markedly inhibited
viability of HeLa cells [9]: suppressed more effectively by Pac 1 than by Pac 2
IC50 [10]: 2500 nM
inhibition of kinase activity [11]: not other kinases
growth of breast cancer cell lines [12]: inhibited the growth
inhibition of kinase activity [13]: not other kinases
IC50 ([14]; Homo sapiens, sensitive cell lines of the oncopanel of 127 lung cancer cell lines): 10 to 950 nM
sensitivity of VCAN mutant lung cancer cells ([14]; VCAN mutants versus VCAN wild-type cells): sensitive
share of cell lines sensitive ([14]; oncopanel of 127 cell lines of various lung tumor origins): Sixty-five
inhibition of PIM3/1 activity [15]: markedly inhibited
